This passage reports relative viability results from the supplement of paper PMC10307832.

Holding throughout (assay): relative viability (nuclei count vs DMSO), 5 days (fraction); higher = more cells survive
Compound in the assay “Omipalisib + Trametinib”: COc1ncc(-c2ccc3nccc(-c4ccnnc4)c3c2)cc1NS(=O)(=O)c1ccc(F)cc1F [Omipalisib] + CC(=O)Nc1cccc(-n2c(=O)n(C3CC3)c(=O)c3c(Nc4ccc(I)cc4F)n(C)c(=O)c(C)c32)c1 [Trametinib] (partner 0.02 µM)
In short, it runs like this:
(§1)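 Lung cancer cell lines in 1536-well plates got either a single drug or a fixed anchor-drug dose together with five library-drug doses (not always all listed) in √10 steps, by pin tool, on the day after seeding. Nuclei were counted after 5 days, and relative viability is the treated-to-vehicle ratio of nuclei counts. Values are medians of duplicate plates.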

Compound in the assay “Omipalisib + Bortezomib”: COc1ncc(-c2ccc3nccc(-c4ccnnc4)c3c2)cc1NS(=O)(=O)c1ccc(F)cc1F [Omipalisib] + CC(C)C[C@H](NC(=O)[C@H](Cc1ccccc1)NC(=O)c1cnccn1)B(O)O [Bortezomib] (partner 0.002 µM)
In short, it runs like this: as §1

Compound in the assay “Omipalisib + Foretinib”: COc1ncc(-c2ccc3nccc(-c4ccnnc4)c3c2)cc1NS(=O)(=O)c1ccc(F)cc1F [Omipalisib] + COc1cc2c(Oc3ccc(NC(=O)C4(C(=O)Nc5ccc(F)cc5)CC4)cc3F)ccnc2cc1OCCCN1CCOCC1 [Foretinib] (partner 0.25 µM)
In short, it runs like this:
as §1

Compound in the assay “Omipalisib + OSI-027”: COc1ncc(-c2ccc3nccc(-c4ccnnc4)c3c2)cc1NS(=O)(=O)c1ccc(F)cc1F [Omipalisib] + COc1cccc2cc(-c3nc([C@H]4CC[C@H](C(=O)O)CC4)n4ncnc(N)c34)[nH]c12 [OSI-027] (partner 0.5 µM)
In outline: as §1

Compound in the assay “Omipalisib + Lapatinib”: COc1ncc(-c2ccc3nccc(-c4ccnnc4)c3c2)cc1NS(=O)(=O)c1ccc(F)cc1F [Omipalisib] + CS(=O)(=O)CCNCc1ccc(-c2ccc3ncnc(Nc4ccc(OCc5cccc(F)c5)c(Cl)c4)c3c2)o1 [Lapatinib] (partner 2 µM)
In short, it runs like this:
as §1

Compound in the assay “Omipalisib + Alpelisib”: COc1ncc(-c2ccc3nccc(-c4ccnnc4)c3c2)cc1NS(=O)(=O)c1ccc(F)cc1F [Omipalisib] + Cc1nc(NC(=O)N2CCC[C@H]2C(N)=O)sc1-c1ccnc(C(C)(C)C(F)(F)F)c1 [Alpelisib] (partner 2 µM)
In outline: as §1

Regarding NCI-H1734, the relative viability worked out at 0.54 with Omipalisib + Trametinib (first compound 0.0003 µM); 0.362 in the assay with Omipalisib + Trametinib (first compound 0.003 µM); 0.288 with Omipalisib + Trametinib (first compound 0.03 µM); 0.937 with Omipalisib + Bortezomib (first compound 0.0003 µM); 0.544 with Omipalisib + Bortezomib (first compound 0.003 µM); 0.276 with Omipalisib + Bortezomib (first compound 0.03 µM). Also, the relative viability was 0.754 with Omipalisib + Foretinib (first compound 0.0003 µM); 0.446 in the assay with Omipalisib + Foretinib (first compound 0.003 µM); 0.268 with Omipalisib + Foretinib (first compound 0.03 µM); 0.561 in the assay with Omipalisib + OSI-027 (first compound 0.0003 µM); 0.275 in the assay with Omipalisib + OSI-027 (first compound 0.003 µM); 0.239 in the assay with Omipalisib + OSI-027 (first compound 0.03 µM). The relative viability with Omipalisib + Lapatinib (first compound 0.0003 µM) is 0.943; with Omipalisib + Lapatinib (first compound 0.003 µM) it was 0.699; in the assay with Omipalisib + Lapatinib (first compound 0.03 µM), 0.551; with Omipalisib + Alpelisib (first compound 0.0003 µM) it was 0.582; with Omipalisib + Alpelisib (first compound 0.003 µM), 0.464; with Omipalisib + Alpelisib (first compound 0.03 µM) it was 0.32.
